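Exposure lasted 48 hours, with cells grown in 96-well plates and compounds tested at five concentrations. GI50 = concentration required for 50% inhibition of growth.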 Activity calls are given as the source filed them. Cut-off read from the data, not from the text of the source: active = GI50 up to about 1.1 µM and inactive = higher.
How the values were obtained:
Assay in all cases: NCI tumour cell line growth inhibition, 48 h
HCC 2998 = system: HCC 2998
A549 = system: A549
SK-OV-3 = system: SK-OV-3
M19-MEL = system: M19-MEL
SNB-19 = system: SNB-19
SN12C = system: SN12C
HCT-15 = system: HCT-15
TK-10 = system: TK-10
HOP-92 = system: HOP-92
UACC-62 = system: UACC-62
SNB-78 = system: SNB-78
SF-268 = system: SF-268
COLO 205 = system: COLO 205
SF-539 = system: SF-539
DLD-1 = system: DLD-1
RPMI-8226 = system: RPMI-8226
UO-31 = system: UO-31
U-251 = system: U-251
RXF 393 = system: RXF 393
HOP-18 = system: HOP-18
A498 = system: A498
HT-29 = system: HT-29
MOLT-4 = system: MOLT-4
SW-620 = system: SW-620
SNB-75 = system: SNB-75
K562 = system: K562
SF-295 = system: SF-295
UACC-257 = system: UACC-257
SK-MEL-2 = system: SK-MEL-2
IGROV-1 = system: IGROV-1
NCI-H522 = system: NCI-H522
SK-MEL-5 = system: SK-MEL-5
OVCAR-8 = system: OVCAR-8
OVCAR-5 = system: OVCAR-5
SK-MEL-28 = system: SK-MEL-28
LOX IMVI = system: LOX IMVI
786-0 = system: 786-0
HL-60 = system: HL-60
NCI-H23 = system: NCI-H23
HOP-62 = system: HOP-62
DMS-273 = system: DMS-273
NCI-H460 = system: NCI-H460
KM-20L2 = system: KM-20L2
CAKI-1 = system: CAKI-1
KM12 = system: KM12
CCRF-CEM = system: CCRF-CEM
DMS-114 = system: DMS-114
OVCAR-3 = system: OVCAR-3
EKVX = system: EKVX
Malme-3M = system: Malme-3M

COc1ccc(/C=C/C(=O)c2sc(N)nc2C)cc1
GI50 (HCC 2998): > 100 µM (inactive)
GI50 (A549): > 100 µM (inactive)
GI50 (SK-OV-3): > 100 µM (inactive)
GI50 (M19-MEL): > 100 µM (inactive)
GI50 (SNB-19): > 100 µM (inactive)
GI50 (SN12C): > 100 µM (inactive)
GI50 (HCT-15): > 100 µM
GI50 (TK-10): > 100 µM (inactive)
GI50 (HOP-92): > 100 µM (inactive)
GI50 (UACC-62): > 100 µM (inactive)
GI50 (SNB-78): > 100 µM (inactive)
GI50 (SF-268): > 100 µM (inactive)
GI50 (COLO 205): > 100 µM (inactive)
GI50 (SF-539): > 100 µM (inactive)
GI50 (DLD-1): > 100 µM (inactive)
GI50 (RPMI-8226): > 100 µM (inactive)
GI50 (UO-31): > 100 µM (inactive)
GI50 (U-251): > 100 µM (inactive)
GI50 (RXF 393): > 100 µM (inactive)
GI50 (HOP-18): > 100 µM (inactive)
GI50 (A498): > 100 µM (inactive)
GI50 (HT-29): > 100 µM (inactive)
GI50 (MOLT-4): > 100 µM (inactive)
GI50 (SW-620): > 100 µM (inactive)
GI50 (SNB-75): > 100 µM (inactive)
GI50 (K562): > 100 µM (inactive)
GI50 (SF-295): > 100 µM (inactive)
GI50 (UACC-257): > 100 µM (inactive)
GI50 (SK-MEL-2): > 100 µM (inactive)
GI50 (IGROV-1): > 100 µM (inactive)
GI50 (NCI-H522): > 100 µM (inactive)
GI50 (SK-MEL-5): > 100 µM (inactive)
GI50 (OVCAR-8): > 100 µM (inactive)
GI50 (OVCAR-5): > 100 µM (inactive)
GI50 (SK-MEL-28): > 100 µM (inactive)
GI50 (LOX IMVI): > 100 µM (inactive)
GI50 (786-0): > 100 µM (inactive)
GI50 (HL-60): > 100 µM (inactive)
GI50 (NCI-H23): > 100 µM (inactive)
GI50 (HOP-62): > 100 µM (inactive)
GI50 (DMS-273): > 100 µM (inactive)
GI50 (NCI-H460): > 100 µM (inactive)
GI50 (KM-20L2): > 100 µM (inactive)
GI50 (CAKI-1): > 100 µM (inactive)
GI50 (KM12): > 100 µM (inactive)
GI50 (CCRF-CEM): > 100 µM (inactive)
GI50 (DMS-114): > 100 µM (inactive)
GI50 (OVCAR-3): 41 µM (inactive)
GI50 (EKVX): > 100 µM (inactive)
GI50 (Malme-3M): > 100 µM (inactive)

Source: ChEMBL document CHEMBL1201862, “PubChem BioAssay data set” (2004)
